Here are results for one compound from publication PMC5719402, “Protein-Structure Assisted Optimization of 4,5-Dihydroxypyrimidine-6-Carboxamide Inhibitors of Influenza Virus Endonuclease” (Scientific Reports, 2017).

In this test the target is wild type PAN ΔLoop protein (Influenza A virus, UniProt C3W5S0, DEL51-57/DEL61-72/E59G). It counts as biochemical, influenza A/California/04/2009 H1N1. The settings on record: read-out: FRET IC50.

The structures appear in SMILES notation.

Consider `O=C(O)C(=O)CC(=O)c1ccccc1` [DPBA, reference compound], for which the IC50 (as a rule, the concentration at which inhibition is half-maximal) came out at 98 ± 3 nM.
